Settings: Liquid, Vibrating tube method

CCCCC(=O)OCC(COC(=O)CCCC)(COC(=O)CCCC)COC(=O)CCCC [pentaerythritol tetrapentanoate]
Settings	mass density [kg/m3]
303.16 K, 794.63 kPa	1011.4
303.16 K, 4758.7 kPa	1013.9
303.16 K, 10737 kPa	1017.8
303.16 K, 10776 kPa	1017.7
303.16 K, 19666 kPa	1023
303.16 K, 25722 kPa	1026.7
303.16 K, 33332 kPa	1030.7
303.16 K, 33572 kPa	1030.8
303.16 K, 34311 kPa	1031.2
303.16 K, 34317 kPa	1031.3
303.16 K, 34322 kPa	1031.4
303.16 K, 34329 kPa	1031.2
303.16 K, 34349 kPa	1031.2
323.14 K, 736.7 kPa	995.1
323.14 K, 775.7 kPa	995.1
323.14 K, 800.8 kPa	995.2
323.14 K, 1023.7 kPa	995.3
323.14 K, 1214.2 kPa	995.6
323.14 K, 1242.9 kPa	995.4
323.14 K, 1267.4 kPa	995.5
323.14 K, 1292.7 kPa	995.4
323.14 K, 1352.1 kPa	995.6
323.14 K, 1554.7 kPa	995.8
323.14 K, 1591.2 kPa	995.7
323.14 K, 1625.4 kPa	995.6
323.14 K, 1652.3 kPa	995.8
323.14 K, 1677.1 kPa	995.8
323.14 K, 1847.7 kPa	995.8
323.14 K, 1899.2 kPa	995.8
323.14 K, 1926.8 kPa	996
323.14 K, 1959.1 kPa	996
323.14 K, 1986.5 kPa	996.1
323.14 K, 2181.7 kPa	996.1
323.14 K, 2215.2 kPa	996.1
323.14 K, 2249 kPa	996.2
323.14 K, 2284.1 kPa	996.3
323.14 K, 2935.8 kPa	996.6
323.14 K, 2965.1 kPa	996.7
323.14 K, 3225.9 kPa	996.8
323.14 K, 3237 kPa	996.9
323.14 K, 3248.4 kPa	996.9
323.14 K, 3385 kPa	996.9
323.14 K, 7926.5 kPa	1000.3
323.14 K, 7971.9 kPa	1000.2
323.14 K, 9459.5 kPa	1001.1
323.14 K, 9766.4 kPa	1001.5
323.14 K, 9799.5 kPa	1001.4
323.14 K, 9832.9 kPa	1001.5
323.14 K, 9906.9 kPa	1001.6
323.14 K, 9941.6 kPa	1001.6
323.14 K, 10052 kPa	1001.6
323.14 K, 10094 kPa	1001.7
323.14 K, 10244 kPa	1001.9
323.14 K, 11507 kPa	1002.6
323.14 K, 12708 kPa	1003.4
323.14 K, 13903 kPa	1004.3
323.14 K, 14014 kPa	1004.2
323.14 K, 14206 kPa	1004.4
323.14 K, 14241 kPa	1004.3
323.14 K, 19359 kPa	1007.7
323.14 K, 19418 kPa	1007.7
323.14 K, 19454 kPa	1007.7
323.14 K, 19485 kPa	1007.9
323.14 K, 28758 kPa	1013.5
323.14 K, 28848 kPa	1013.6
323.14 K, 28889 kPa	1013.5
323.14 K, 28930 kPa	1013.6
323.14 K, 29171 kPa	1013.8
323.14 K, 29205 kPa	1013.9
323.14 K, 29234 kPa	1013.8
323.14 K, 29268 kPa	1014
323.14 K, 29296 kPa	1013.9
323.15 K, 106.09 kPa	994.8
323.15 K, 106.1 kPa	994.7
323.15 K, 106.26 kPa	994.6
323.15 K, 106.44 kPa	994.7
323.15 K, 107.13 kPa	994.6
323.15 K, 108 kPa	994.6
323.15 K, 108.53 kPa	994.7
323.15 K, 110.43 kPa	994.6
